Among the data in US20190216829A1, “Anticancer Compositions” (ARAGON PHARMACEUTICALS, INC., priority 2016, published 2019) are Solubility values, retold here.

Structures are written as SMILES. Values after ≈ are worked out from the molar mass of the structure shown.

Usually Solubility stands for the dissolved amount per volume that the medium holds. Read a low Solubility as little dissolved substance.

This data set in a line: Solubility of ARN-509 forms in water. The class given is physicochemical. How it is done:
Solubility of Form A: 0.01 mg/ml in water.
Solubility of Form B: 0.004 mg/ml in water.

As for `CNC(=O)c1ccc(N2C(=S)N(c3cnc(C#N)c(C(F)(F)F)c3)C(=O)C23CCC3)cc1F` [Form A, 4-[7-(6-cyano-5-trifluoromethylpyridin-3-yl)-8-oxo-6-thioxo-5,7-diazaspiro[3.4]oct-5-yl]-2-fluoro-N-methylbenzamide], the Solubility came out at 10 µg/mL (≈ 20.9 µM). Then `CNC(=O)c1ccc(N2C(=S)N(c3cnc(C#N)c(C(F)(F)F)c3)C(=O)C23CCC3)cc1F` [Form B, 4-[7-(6-cyano-5-trifluoromethylpyridin-3-yl)-8-oxo-6-thioxo-5,7-diazaspiro[3.4]oct-5-yl]-2-fluoro-N-methylbenzamide], with 4 µg/mL (≈ 8.38 µM).
